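Five concentrations, 48 hours, 96-well plates. Abbreviation: GI50, concentration required for 50% inhibition of growth. TGI: total growth inhibition.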
Experiments:
Test in all cases: growth of human tumour cells (NCI), 48 h
OVCAR-4 ovarian = system: OVCAR-4 ovarian
RXF 393 renal = system: RXF 393 renal
CCRF-CEM leukemia = system: CCRF-CEM leukemia
HL-60(TB) leukemia = system: HL-60(TB) leukemia
UACC-257 melanoma = system: UACC-257 melanoma
NCI-H226 lung = system: NCI-H226 lung
SF-295 CNS = system: SF-295 CNS
SK-MEL-2 melanoma = system: SK-MEL-2 melanoma
SK-OV-3 ovarian = system: SK-OV-3 ovarian
DU-145 prostate = system: DU-145 prostate

Row | SMILES | TGI (OVCAR-4 ovarian) | TGI (RXF 393 renal) | TGI (CCRF-CEM leukemia) | TGI (HL-60(TB) leukemia) | TGI (UACC-257 melanoma) | TGI (NCI-H226 lung) | TGI (SF-295 CNS) | TGI (SK-MEL-2 melanoma) | TGI (SK-OV-3 ovarian) | GI50 (OVCAR-4 ovarian) | GI50 (DU-145 prostate) | TGI (DU-145 prostate) | GI50 (RXF 393 renal) | GI50 (CCRF-CEM leukemia) | GI50 (HL-60(TB) leukemia) | GI50 (UACC-257 melanoma) | GI50 (NCI-H226 lung) | GI50 (SF-295 CNS) | GI50 (SK-MEL-2 melanoma) | GI50 (SK-OV-3 ovarian)
1 | COc1cc([C@@H]2OC(=O)C3C2C(=O)O[C@H]3c2cc(OC)c(OC)c(OC)c2)cc(OC)c1OC (some centres undefined) | > 100 µM | > 100 µM | > 100 µM | > 100 µM | > 100 µM | > 100 µM | > 100 µM | > 100 µM | > 100 µM |  |  |  |  |  |  |  |  |  |  | 
2 | N#CC(C#N)=C1SCC(=O)CS1 | > 100 µM | > 100 µM | > 100 µM | > 100 µM | > 100 µM | > 100 µM | > 100 µM |  | > 100 µM |  |  |  |  |  |  |  |  |  |  | 
3 | COc1cc([N+](=O)[O-])c(OC)cc1-c1nc2sc(Cl)cn2c1/C=N/NC(=N)N/N=C/c1c(-c2cc(OC)c([N+](=O)[O-])cc2OC)nc2sc(Cl)cn12 | 5.71 µM |  |  |  |  |  |  |  |  | 2.42 µM | 1.91 µM | 4.06 µM |  |  |  |  |  |  |  | 
4 | CCOC(=O)NC(=O)c1cn(CCN2CCN(C(=O)NCCCCCCNC(=O)N3CCN(CCn4cc(C(=O)NC(=O)OCC)c(=O)n(CCN(CC)CC)c4=O)CC3)CC2)c(=O)n(CCC(CC)CC)c1=O | > 100 µM | > 100 µM |  | > 100 µM | > 100 µM |  | > 100 µM | > 100 µM | > 100 µM |  |  |  |  |  |  |  |  |  |  | 
5 | C[CH2][Sn]([Cl])([Cl])[CH2]C | > 100 µM | 32.7 µM | 39.9 µM | > 100 µM | 35 µM | 42.6 µM | > 100 µM | 37.4 µM | > 100 µM | > 100 µM |  |  | 17.5 µM | 9.5 µM | > 75.9 µM | 18.4 µM | 19.9 µM | > 75 µM | 17 µM | > 100 µM
6 | C=C(C)[C@H](O)C(O)CC(C)[C@@H]1CCC23CC12CCC1[C@@]2(C)CCC(OC(C)=O)C(C)(C)C2CC(OC2OC(COC(C)=O)C(O)C(O)C2O)[C@]13C (some centres undefined) | 14 µM | 8.49 µM | 9.7 µM | 5.08 µM | 12 µM | 11.2 µM | 12.5 µM | 16.2 µM | 14.3 µM |  |  |  |  |  |  |  |  |  |  | 
7 | O=C1CCCC1NC(=O)C(F)(F)F (centres undefined) | > 100 µM | > 100 µM | > 100 µM | > 100 µM | > 100 µM | > 100 µM | > 100 µM | > 100 µM | > 100 µM |  |  |  |  |  |  |  |  |  |  | 
8 | CC1/C(=N/Nc2ccc([N+](=O)[O-])cc2)CC2C3(C)CCC2(C(C)C(=O)O)C(=O)C13 (centres undefined) | > 100 µM | > 100 µM | > 100 µM |  | > 100 µM |  | > 100 µM | > 100 µM | > 100 µM | > 100 µM | > 100 µM | > 100 µM | 3.18 µM | 16.3 µM |  | > 100 µM |  | 4.74 µM | 8.75 µM | > 100 µM
9 | Clc1ccc(SCCCCCCCCCCSc2ccc(Cl)cc2)cc1 | > 100 µM | > 100 µM | > 100 µM | > 100 µM | > 76.1 µM | > 100 µM | > 71.4 µM | > 70.4 µM | > 100 µM |  |  |  |  |  |  |  |  |  |  | 
10 | c1ccc(SC(CCCCOC2CCCCO2)Sc2ccccc2)cc1 (centres undefined) | > 100 µM | > 100 µM | 93.1 µM | 47.5 µM | > 100 µM |  | > 100 µM | > 100 µM | > 100 µM |  |  |  |  |  |  |  |  |  |  | 
11 | COc1cc(-c2oc3c(OC)c(O)c(OC)c(O)c3c(=O)c2OC)ccc1O | > 100 µM |  | > 100 µM | > 100 µM | > 100 µM | > 100 µM | > 100 µM | 74.9 µM | 54.6 µM |  |  | > 100 µM |  |  |  |  |  |  |  | 
12 | Cc1cccc2c1C(=O)OC2(C)c1cccc2ccccc12 (centres undefined) | 67.4 µM | 84.6 µM | 80.4 µM | 46.2 µM | > 100 µM | 57.2 µM | > 100 µM | > 100 µM |  |  |  |  |  |  |  |  |  |  |  | 
13 | CC(=O)c1c[nH]cc1CO |  | > 10 µM | > 10 µM | > 10 µM |  | > 10 µM | > 10 µM | > 10 µM | > 10 µM |  |  |  |  |  |  |  |  |  |  | 
14 | COc1ccc2c(c1)CC1c3c(cc4c(c3-2)OCO4)CCN1C (centres undefined) | 52.2 µM |  | > 100 µM |  | 57.5 µM | 64.9 µM | 50 µM | 72.3 µM | 69.1 µM |  |  |  |  |  |  |  |  |  |  | 
15 | C=CCN=C1NC(=O)C(CC(=O)Nc2ccc(C)cc2)S1 (centres undefined) | > 100 µM | > 100 µM | > 100 µM | > 100 µM |  | > 100 µM | > 100 µM | > 100 µM | > 100 µM |  |  |  |  |  |  |  |  |  |  | 
16 | Cc1cccc2c1C/C(=C1\CCc3c(C)cccc31)C2=O | > 100 µM | > 100 µM | > 100 µM | > 100 µM | > 100 µM | > 100 µM | > 100 µM | > 100 µM | > 100 µM |  |  |  |  |  |  |  |  |  |  | 
17 | O=C(N/C(=C\c1ccc(Oc2ccc(Cl)c(Cl)c2)cc1)c1nc2ccccc2[nH]1)c1ccccc1 | 54.2 µM | 28.1 µM | 88.5 µM |  |  |  | 29 µM | 37.7 µM | 79.2 µM |  |  |  |  |  |  |  |  |  |  | 
18 | CC(C)C[C@@H]1NC(=O)[C@@H]2CCCN2C(=O)[C@@H]2CCCN2C(=O)[C@H](CC(C)C)NC(=O)[C@H](CO)NC(=O)[C@H](CCCCN)NC(=O)[C@H]([C@H](C)O)NC(=O)[C@@H]2CCCC[C@@H](NC1=O)C(=O)N[C@@H](Cc1ccccc1)C(=O)N1CCC[C@H]1C(=O)N[C@@H](CC(=O)O)C(=O)NCC(=O)N[C@@H](CCCN=C(N)N)C(=O)N2 | > 50 µM | > 50 µM | > 50 µM |  | > 50 µM | > 50 µM | > 50 µM | > 50 µM | > 50 µM | > 50 µM | > 50 µM | > 50 µM | > 50 µM | > 50 µM |  | > 50 µM | > 50 µM | > 50 µM | > 50 µM | > 50 µM
19 | NC(CCSC(F)F)C(=O)O (centres undefined) | > 100 µM | > 100 µM | > 100 µM |  |  | > 100 µM | > 100 µM | > 100 µM | > 100 µM |  |  |  |  |  |  |  |  |  |  | 
20 | CCOc1ccccc1NC(=O)C1=C(C)NC(C)=C(C(=O)Nc2ccccc2OCC)C1c1ccc(NC(C)=O)cc1 | > 100 µM | > 100 µM | > 100 µM | > 100 µM | > 100 µM | > 100 µM | 71.5 µM | 58.6 µM | 67.5 µM |  |  |  |  |  |  |  |  |  |  | 
21 | O=C1C(=O)c2ccccc2C(O)=C1CCCCCCCCC1CCCCC1 | > 100 µM |  | 13.6 µM |  | 72.8 µM |  |  | 30.2 µM | 54.4 µM |  |  | 33.4 µM |  |  |  |  |  |  |  | 
22 | CC1=Nn2c(nnc2-c2ccc(N)cc2)NC(C)(C)C1 | > 100 µM |  | > 100 µM | > 100 µM | > 100 µM | > 100 µM | > 100 µM | > 100 µM | > 100 µM |  |  |  |  |  |  |  |  |  |  | 

From PubChem BioAssay (NCI)
